# Experimental data reported in patent publication US20020137929A1, “1 - (3-heterocyclylphenyl) isothiourea, -isourea, -guanidine and -amidine herbicidal agents” (Intellectual Property Department, BASF Aktiengesellschaft, priority 1998, published 2002).
# What was measured:
# [1] = system: IPOHE (Morningglory, Ivyleaf); test: Preemergence herbicidal evaluation; format: in vivo, Ipomoea hederacea; settings: rated 4-5 weeks after treatment
# Summary of the method: (§1)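 Herbicidal effect scored visually, 0-9, at 4 to 5 weeks against a control; compound applied preemergence by aqueous acetone spray to seeded soil at about 0.0156 to 0.500 kg/ha.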
# SETVI (Foxtail, Green) [2] = test: Preemergence herbicidal evaluation; format: in vivo, Setaria viridis; settings: rated 4-5 weeks after treatment
# Summary of the method: as §1
# [3] = system: CHEAL (Lambsquarters, Common); test: Preemergence herbicidal evaluation; format: in vivo, Chenopodium album; settings: rated 4-5 weeks after treatment
# Summary of the method: as §1
# [4] = system: GLXMAW (Soybean, Williams); test: Postemergence herbicidal evaluation; format: in vivo, Glycine max, (L.) Merr. cv Williams; settings: postemergence
# Summary of the method: (§2)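 Two-week-old seedlings sprayed with compound in 50/50 acetone/water plus 0.5% TWEEN 20, at about 0.0156 to 0.500 kg/ha, nozzle at 40 psi. Kept in greenhouse; rated visually 4-5 weeks after treatment on a 0-9 scale versus control, repeat tests averaged.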
# GALAP (Galium) [5] = test: Postemergence herbicidal evaluation; format: in vivo, Galium aparine; settings: postemergence
# Summary of the method: as §2
# [6] = system: CHEAL (Lambsquarters, Common); test: Postemergence herbicidal evaluation; format: in vivo, Chenopodium album; settings: postemergence
# Summary of the method: as §2
# ECHCG (Barnyardgrass) = test: Preemergence herbicidal evaluation; format: in vivo, Echinochloa crus-galli; settings: rated 4-5 weeks after treatment
# Summary of the method: as §1
# CYPIR (Rice Flatsedge) = test: Preemergence weed control under flooded paddy conditions; format: in vivo, Cyperus iria; settings: rated 3-4 weeks after treatment
# Summary of the method: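 First, seeds or propagules go into the top 0.5 cm of silt loam; next, water is held 1.5 to 3 cm over the soil; then compound (50/50 acetone/water) is pipetted into it at about 0.0313 to 0.500 kg/ha; finally plants are rated visually 0-9 after three to four weeks.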
# ZEAMX (Corn, Field) = test: Preemergence herbicidal evaluation; format: in vivo, Zea mays; settings: rated 4-5 weeks after treatment
# Summary of the method: as §1
# AMBEL (Ragweed, Common) [7] = test: Preemergence herbicidal evaluation; format: in vivo, Ambrosia artemisifolia; settings: rated 4-5 weeks after treatment
# Summary of the method: as §1
# [8] = system: IPOHE (Morningglory, Ivyleaf); test: Postemergence herbicidal evaluation; format: in vivo, Ipomoea hederacea; settings: postemergence
# Summary of the method: as §2
# ABUTH (Velvetleaf) = test: Preemergence herbicidal evaluation; format: in vivo, Abutilon theophrasti; settings: rated 4-5 weeks after treatment
# Summary of the method: as §1
# AMBEL (Ragweed, Common) [9] = test: Postemergence herbicidal evaluation; format: in vivo, Ambrosia artemisifolia; settings: postemergence
# Summary of the method: as §2
# CASOB (Sicklepod) = test: Preemergence herbicidal evaluation; format: in vivo, Cassia obtusifolia; settings: rated 4-5 weeks after treatment
# Summary of the method: as §1
# SETVI (Foxtail, Green) [10] = test: Postemergence herbicidal evaluation; format: in vivo, Setaria viridis; settings: postemergence
# Summary of the method: as §2
# ORYSAT (Rice, Tebonnet) = test: Postemergence herbicidal evaluation; format: in vivo, Oryza sativa, (L.) Tebonnet; settings: postemergence
# Summary of the method: as §2
# GALAP (Galium) [11] = test: Preemergence herbicidal evaluation; format: in vivo, Galium aparine; settings: rated 4-5 weeks after treatment
# Summary of the method: as §1
structure (smiles),measurement,setting,value
"CCOC(=O)CN1C(=O)C(CC(=O)O)SC1=Nc1cc(-n2nc(C)n(C(F)F)c2=O)c(F)cc1Cl (centres unmarked) [Compound 112, 2-{{2-Chloro-5-[4-(difluoromethyl)-4,5-dihydro-3-methyl-5-oxo-1H-1,2,4-triazol-1-yl]-4-fluorophenyl}imino}-4-oxo-3,5-thiazolidinediacetic acid, 3-ethyl ester]",Preemergence herbicidal rating IPOHE,[1]; rate 0.0313 kg/ha,0.0
same,Preemergence herbicidal rating IPOHE,[1]; rate 0.0625 kg/ha,0.0
same,Preemergence herbicidal rating IPOHE,[1]; rate 0.1250 kg/ha,0.0
same,Preemergence herbicidal rating IPOHE,[1]; rate 0.2500 kg/ha,0.0
same,Preemergence herbicidal rating SETVI,"SETVI (Foxtail, Green) [2]; rate 0.0313 kg/ha",1.0
same,Preemergence herbicidal rating SETVI,"SETVI (Foxtail, Green) [2]; rate 0.0625 kg/ha",0.0
same,Preemergence herbicidal rating SETVI,"SETVI (Foxtail, Green) [2]; rate 0.1250 kg/ha",0.0
same,Preemergence herbicidal rating SETVI,"SETVI (Foxtail, Green) [2]; rate 0.2500 kg/ha",0.0
same,Preemergence herbicidal rating CHEAL,[3]; rate 0.2500 kg/ha,1.0
same,herbicidal rating GLXMAW,[4]; rate 0.0158 kg/ha,5.5
same,herbicidal rating GLXMAW,[4]; rate 0.0315 kg/ha,5.0
same,herbicidal rating GLXMAW,[4]; rate 0.0630 kg/ha,6.0
same,herbicidal rating GALAP,GALAP (Galium) [5]; rate 0.0158 kg/ha,0.0
same,herbicidal rating GALAP,GALAP (Galium) [5]; rate 0.0315 kg/ha,2.0
same,herbicidal rating GALAP,GALAP (Galium) [5]; rate 0.0630 kg/ha,2.0
same,herbicidal rating CHEAL,[6]; rate 0.0158 kg/ha,4.0
same,herbicidal rating CHEAL,[6]; rate 0.0315 kg/ha,9.0
same,herbicidal rating CHEAL,[6]; rate 0.0630 kg/ha,9.0
same,Preemergence herbicidal rating ECHCG,ECHCG (Barnyardgrass); rate 0.0313 kg/ha,0.0
same,Preemergence herbicidal rating ECHCG,ECHCG (Barnyardgrass); rate 0.0625 kg/ha,0.0
same,Preemergence herbicidal rating ECHCG,ECHCG (Barnyardgrass); rate 0.1250 kg/ha,0.0
same,Preemergence herbicidal rating ECHCG,ECHCG (Barnyardgrass); rate 0.2500 kg/ha,0.0
same,CYPIR herbicidal effect rating,CYPIR (Rice Flatsedge); 0.0313 kg/ha,0.0
same,CYPIR herbicidal effect rating,CYPIR (Rice Flatsedge); 0.0625 kg/ha,3.0
same,CYPIR herbicidal effect rating,CYPIR (Rice Flatsedge); 0.1250 kg/ha,6.0
same,CYPIR herbicidal effect rating,CYPIR (Rice Flatsedge); 0.2500 kg/ha,7.0
same,Preemergence herbicidal rating ZEAMX,"ZEAMX (Corn, Field); rate 0.0313 kg/ha",0.0
same,Preemergence herbicidal rating ZEAMX,"ZEAMX (Corn, Field); rate 0.0625 kg/ha",0.0
same,Preemergence herbicidal rating ZEAMX,"ZEAMX (Corn, Field); rate 0.1250 kg/ha",1.0
same,Preemergence herbicidal rating ZEAMX,"ZEAMX (Corn, Field); rate 0.2500 kg/ha",4.0
same,Preemergence herbicidal rating AMBEL,"AMBEL (Ragweed, Common) [7]; rate 0.0313 kg/ha",0.0
same,Preemergence herbicidal rating AMBEL,"AMBEL (Ragweed, Common) [7]; rate 0.0625 kg/ha",0.0
same,Preemergence herbicidal rating AMBEL,"AMBEL (Ragweed, Common) [7]; rate 0.1250 kg/ha",0.0
same,Preemergence herbicidal rating AMBEL,"AMBEL (Ragweed, Common) [7]; rate 0.2500 kg/ha",0.0
same,herbicidal rating IPOHE,[8]; rate 0.0158 kg/ha,9.0
same,herbicidal rating IPOHE,[8]; rate 0.0315 kg/ha,9.0
same,herbicidal rating IPOHE,[8]; rate 0.0630 kg/ha,9.0
same,Preemergence herbicidal rating ABUTH,ABUTH (Velvetleaf); rate 0.0313 kg/ha,0.0
same,Preemergence herbicidal rating ABUTH,ABUTH (Velvetleaf); rate 0.0625 kg/ha,0.0
same,Preemergence herbicidal rating ABUTH,ABUTH (Velvetleaf); rate 0.2500 kg/ha,1.0
same,herbicidal rating AMBEL,"AMBEL (Ragweed, Common) [9]; rate 0.0158 kg/ha",5.0
same,herbicidal rating AMBEL,"AMBEL (Ragweed, Common) [9]; rate 0.0315 kg/ha",9.0
same,herbicidal rating AMBEL,"AMBEL (Ragweed, Common) [9]; rate 0.0630 kg/ha",9.0
same,Preemergence herbicidal rating CASOB,CASOB (Sicklepod); rate 0.0313 kg/ha,0.0
same,Preemergence herbicidal rating CASOB,CASOB (Sicklepod); rate 0.0625 kg/ha,0.0
same,Preemergence herbicidal rating CASOB,CASOB (Sicklepod); rate 0.1250 kg/ha,0.0
same,Preemergence herbicidal rating CASOB,CASOB (Sicklepod); rate 0.2500 kg/ha,0.0
same,herbicidal rating SETVI,"SETVI (Foxtail, Green) [10]; rate 0.0158 kg/ha",3.0
same,herbicidal rating SETVI,"SETVI (Foxtail, Green) [10]; rate 0.0315 kg/ha",9.0
same,herbicidal rating SETVI,"SETVI (Foxtail, Green) [10]; rate 0.0630 kg/ha",6.0
same,herbicidal rating ORYSAT,"ORYSAT (Rice, Tebonnet); rate 0.0158 kg/ha",2.0
same,herbicidal rating ORYSAT,"ORYSAT (Rice, Tebonnet); rate 0.0315 kg/ha",2.0
same,herbicidal rating ORYSAT,"ORYSAT (Rice, Tebonnet); rate 0.0630 kg/ha",2.5
same,Preemergence herbicidal rating GALAP,GALAP (Galium) [11]; rate 0.0313 kg/ha,0.0
same,Preemergence herbicidal rating GALAP,GALAP (Galium) [11]; rate 0.0625 kg/ha,0.0
same,Preemergence herbicidal rating GALAP,GALAP (Galium) [11]; rate 0.1250 kg/ha,0.0
same,Preemergence herbicidal rating GALAP,GALAP (Galium) [11]; rate 0.2500 kg/ha,0.0
CC1SC(=Nc2cc(N3C(=O)C4=C(CCCC4)C3=O)c(F)cc2Cl)N(C)C1=O (centres unmarked) [Compound 4],SETVI preemergence herbicidal rating,"SETVI (Foxtail, Green) [2]; rate 0.1250 kg/ha",2.0
same,SETVI preemergence herbicidal rating,"SETVI (Foxtail, Green) [2]; rate 0.2500 kg/ha",4.0
same,SETVI preemergence herbicidal rating,"SETVI (Foxtail, Green) [2]; rate 0.5000 kg/ha",9.0
same,CHEAL preemergence herbicidal rating,[3]; rate 0.1250 kg/ha,0.0
same,CHEAL preemergence herbicidal rating,[3]; rate 0.2500 kg/ha,2.0
same,CHEAL preemergence herbicidal rating,[3]; rate 0.5000 kg/ha,9.0
same,GALAP herbicidal rating,GALAP (Galium) [5]; rate 0.0313 kg/ha,0.0
same,GALAP herbicidal rating,GALAP (Galium) [5]; rate 0.0625 kg/ha,2.0
same,GALAP herbicidal rating,GALAP (Galium) [5]; rate 0.1250 kg/ha,2.0
same,GALAP herbicidal rating,GALAP (Galium) [5]; rate 0.5000 kg/ha,6.0
same,CHEAL herbicidal rating,[6]; rate 0.0313 kg/ha,2.0
same,CHEAL herbicidal rating,[6]; rate 0.0625 kg/ha,6.0
same,CHEAL herbicidal rating,[6]; rate 0.1250 kg/ha,8.0
same,CHEAL herbicidal rating,[6]; rate 0.2500 kg/ha,4.0
same,CHEAL herbicidal rating,[6]; rate 0.5000 kg/ha,4.0
same,ECHCG preemergence herbicidal rating,ECHCG (Barnyardgrass); rate 0.1250 kg/ha,0.0
same,ECHCG preemergence herbicidal rating,ECHCG (Barnyardgrass); rate 0.2500 kg/ha,2.0
same,ECHCG preemergence herbicidal rating,ECHCG (Barnyardgrass); rate 0.5000 kg/ha,6.0
same,Herbicidal rating CYPIR,CYPIR (Rice Flatsedge); 0.0313 kg/ha,0.0
same,Herbicidal rating CYPIR,CYPIR (Rice Flatsedge); 0.0625 kg/ha,4.0
same,Herbicidal rating CYPIR,CYPIR (Rice Flatsedge); 0.1250 kg/ha,8.0
same,Herbicidal rating CYPIR,CYPIR (Rice Flatsedge); 0.2500 kg/ha,9.0
same,Herbicidal rating CYPIR,CYPIR (Rice Flatsedge); 0.5000 kg/ha,9.0
same,ZEAMX preemergence herbicidal rating,"ZEAMX (Corn, Field); rate 0.1250 kg/ha",2.0
same,ZEAMX preemergence herbicidal rating,"ZEAMX (Corn, Field); rate 0.2500 kg/ha",2.0
same,ZEAMX preemergence herbicidal rating,"ZEAMX (Corn, Field); rate 0.5000 kg/ha",4.0
same,AMBEL preemergence herbicidal rating,"AMBEL (Ragweed, Common) [7]; rate 0.1250 kg/ha",0.0
same,AMBEL preemergence herbicidal rating,"AMBEL (Ragweed, Common) [7]; rate 0.2500 kg/ha",1.0
same,AMBEL preemergence herbicidal rating,"AMBEL (Ragweed, Common) [7]; rate 0.5000 kg/ha",4.0
same,ABUTH preemergence herbicidal rating,ABUTH (Velvetleaf); rate 0.1250 kg/ha,0.0
same,ABUTH preemergence herbicidal rating,ABUTH (Velvetleaf); rate 0.2500 kg/ha,2.0
same,ABUTH preemergence herbicidal rating,ABUTH (Velvetleaf); rate 0.5000 kg/ha,8.0
same,AMBEL herbicidal rating,"AMBEL (Ragweed, Common) [9]; rate 0.0313 kg/ha",0.0
same,AMBEL herbicidal rating,"AMBEL (Ragweed, Common) [9]; rate 0.0625 kg/ha",0.0
same,AMBEL herbicidal rating,"AMBEL (Ragweed, Common) [9]; rate 0.1250 kg/ha",2.0
same,AMBEL herbicidal rating,"AMBEL (Ragweed, Common) [9]; rate 0.2500 kg/ha",6.0
same,AMBEL herbicidal rating,"AMBEL (Ragweed, Common) [9]; rate 0.5000 kg/ha",6.0
same,CASOB preemergence herbicidal rating,CASOB (Sicklepod); rate 0.1250 kg/ha,0.0
same,CASOB preemergence herbicidal rating,CASOB (Sicklepod); rate 0.2500 kg/ha,2.0
same,CASOB preemergence herbicidal rating,CASOB (Sicklepod); rate 0.5000 kg/ha,7.0
same,SETVI herbicidal rating,"SETVI (Foxtail, Green) [10]; rate 0.0313 kg/ha",0.0
same,SETVI herbicidal rating,"SETVI (Foxtail, Green) [10]; rate 0.0625 kg/ha",2.0
same,SETVI herbicidal rating,"SETVI (Foxtail, Green) [10]; rate 0.1250 kg/ha",0.0
same,SETVI herbicidal rating,"SETVI (Foxtail, Green) [10]; rate 0.2500 kg/ha",2.0
same,SETVI herbicidal rating,"SETVI (Foxtail, Green) [10]; rate 0.5000 kg/ha",8.0
same,ORYSAT herbicidal rating,"ORYSAT (Rice, Tebonnet); rate 0.0313 kg/ha",1.0
same,ORYSAT herbicidal rating,"ORYSAT (Rice, Tebonnet); rate 0.0625 kg/ha",1.0
same,ORYSAT herbicidal rating,"ORYSAT (Rice, Tebonnet); rate 0.1250 kg/ha",2.5
same,ORYSAT herbicidal rating,"ORYSAT (Rice, Tebonnet); rate 0.2500 kg/ha",1.5
same,ORYSAT herbicidal rating,"ORYSAT (Rice, Tebonnet); rate 0.5000 kg/ha",3.0
